Assay results: patent US5219825A, “Synergistic herbicidal compositions comprising herbicides which generate toxic oxygen radicals and chelating agents which inhibit their detoxification” (Yeda Research and Development Co., Ltd., priority 1986, dated 1993)

Tests used:
[1] = tested on: Conyza bonariensis paraquat tolerant (high herbicide requiring) biotype; test: Malonyldialdehyde in tissue (lipoxidation, membrane damage) after spraying; assay type: in vivo; conditions: atrazine 0 μM; DDC 0.5% alone; high herbicide requiring biotype; untreated control = 100
Procedure: Seeds of two biotypes of Conyza bonariensis (L.) Cronq. (synonym C. linifolia) were obtained from Egypt. The paraquat sensitive biotype was gathered near Alexendria and seeds of the resistant type from the Tahrir irrigation district. They were obtained from Dr. Martin Parham in England. Seeds were germinated in a growth room with a 14 h light period at 25° C. Plants were transferred out of doors 24 h before being sprayed. The phytotoxicity of three herbicides representative of the three different modes of generating active oxygen species known at present. Commercial paraquat (Gramoxone-ICI Plant Protection Ltd) was formulated with 0.1% (w/v) Tween-20 (a non-ionic surfactant) for spraying. The response to the range of 10^-5 M to 10^-2 M paraquat was measured by spraying two plants per concentration to run-off in the early morning. All plants were exposed to sunlight for at least 13 h (1300 μE.m^-2s^-1 photosynthetically active radiation (PAR) at mid day). Commercial acifluorfen (Blazer, Rohm, and Hass, Philadelphia, Pa., USA) to which was added 0.25% Tween-20 was sprayed to run-off. The response to spraying was measured as with paraquat 24 h after spraying. Commercial atrazine (Atranex 50 WP-Agan) was sprayed at various rates in 0.25% Tween 20 to run off. Fully expanded, 8 to 10 cm long leaves from plants in the rosette stage were used in all experiments. Phytotoxicity of acifluorfen and paraquat was measured as CO2 fixation 24 h later as follows: Detached leaves were placed on wet filter paper in a sealed chamber with 5μ Ci^14 C-sodium bicarbonate. Tartaric acid was remotely dripped on the sodium bicarbonate to release ^14 CO2. Leaves were illuminated with […] (PAR) for 30 min. Eighty percent acetone was added and the mixture put under strong light to photobleach pigments and evaporate the acetone. A scintillation mixture of Lumax:xylene (45:55) was added to the leaves and remaining water. The samples were counted and the data expressed as DPM.cm^-2. Area was measured with a planimeter from photocopies of the leaves made prior to photosynthesis measurements. Phytotoxicity of atrazine was measured as the elevated level of malonyldialdehyde in the tissue. Malonyldialdehyde (as measured with thiobarbituric acid according to Dodge and Gillham (Asp. Appl. Biol 11 97 (1986)) is a measurement of lipoxidation of unsaturated fatty acids, and provides an excellent estimation of damage by active oxygen species.
^b membrane damage was measured as malonyldialdehyde release
(§1) Similarly, both the paraquat resistant and sensitive biotypes of Conyza bonariensis were treated with two other oxidant generating herbicides. Atrazine (of the triazine group) is the most widely used oxidant generating herbicides in agriculture. We used various dilutions of a commercial wettable powder (Atranex 50WP-Agan Chemicals) to which we added 0.5% DDC. The effects were scored 24 h later. […] We also tested to see whether acifluorfen, a nitro diphenyl ether herbicide would be synergized. It is generally agreed that light and oxygen are required for its action via oxidant damage. We sprayed a commercial formulation of acifluorfen (Blazer, Rohm and Haas) to which were added 0.25% Tween-20 detergent, with and without DDC. The effects were scored 24 h later.

[2] = tested on: Conyza bonariensis low herbicide requiring biotype; test: Photosynthesis (14CO2 fixation) of leaf discs removed 5 h after spray treatment; assay type: in vivo; conditions: foliar, acifluorfen 0 μM, DDC 0.5% alone, leaf discs removed 5 h after treatment, untreated control = 100
Procedure: as §1
^b photosynthesis (^14 CO2 fixation) was used as an
additional measurement of phytotoxicity. Leaf discs were removed 5 h afte
treatment for measurement

bean leaf discs = test: Bean leaf disc bleaching assay; assay type: cell-based; conditions: paraquat 20 μM; chelator 0.01% w/v where added; 5 h at 450 μEin.m^-2 s^-1
Procedure: We used this bean leaf disc system to ascertain the potential of chelators to synergize a large variety of phytotoxicants purported to act by generating active oxygen species in the light.
Bean discs were incubated on solutions containing the above mixtures for 5 h at 450 μEin.m^-2 s^-1 and the chlorophyll remaining in the leaves was assayed.

weed species = conditions: cited from earlier work

Compound | membrane damage (malonyldialdehyde release) [1] | activity at 0.5 % [2] | chlorophyll - % of control (bean leaf discs) | rate at which species are killed (weed species; Bromis inermis, Amaranthus retroflexus and wheat) | rate required for good control (weed species; Digitaria, Chenopodium album, Sinapis arvensis and Galium aparine)
CCN(CC)C(=S)[S-].[Na+] [DDC, Sodium diethyldithiocarbamate] | 112 | 92% |  |  | 
C[n+]1ccc(-c2cc[n+](C)cc2)cc1 [paraquat, 1,1'-dimethyl-4-4'bipyridium ion] |  |  | 52 % of control | 0.01 kg/ha | 3 kg/ha
